Experimental data taken from patent US20230181614A1, “ADMINISTRATION OF CITICOLINE TO IMPROVE COGNITIVE PERFORMANCE, ATTENTIONAL PERFORMANCE, AND MOTOR FUNCTION” (KYOWA HAKKO BIO CO., LTD., priority 2014, published 2023).

Experiments:
[1] = test system: Healthy subjects, ages 13-18; assay: ADHD Rating Scale (ARS); format: in vivo, human; design: scale not given here
Source text: Study participants were screened by telephone prior to study enrollment. Healthy subjects, ages 13-18, with no significant medical conditions and no history of co-morbid psychiatric disorder, current Axis I or II diagnosis, or previous participation in a pharmacotherapeutic trial, were selected. Use of any psychotropic medication or any previous head injury resulting in loss of consciousness for 5 or more minutes were used as exclusion criteria. While no participant met criteria for a neuropsychiatric disorder at enrollment, clinical assessments were still completed throughout the study to evaluate changes in mood state. In addition, self-reports of sleep habits, lifestyle, and exercise routines were also administered at baseline as well as at each study visit to assess changes in health habits during study participation. Following the completion of Visit 1 assessment, participants were given their 28-day supply of citicoline (250 mg or 500 mg) or placebo, which was randomly assigned. They were instructed to take one capsule a day every day for the next 28 days. Visit 2 occurred fourteen days after Visit 1. At Visit 2, the remaining study pills were counted and participant dosage calendars were checked to ensure compliance with the protocol. Additional neuropsychological measures and clinical assessments were administered during this visit. Participants returned for Visit 3 fourteen days later, on the 28th day of their study participation. The pill bottle and the dosage calendar were collected from each participant. Urine and blood were again obtained. Participants also participated in similar clinical and neuropsychological testing and clinical measures that were given during visit 1. The ARS is a questionnaire assessing the frequency of DSM-IV-TR symptoms of ADHD in children including inattention, impulsivity, and hyperactivity. The scale was administered at each of the three visits to assess presence or absence of ADHD symptoms.

[2] = test system: Healthy subjects, ages 13-18; assay: Continuous Performance Test (CPT); format: in vivo, human; conditions: for CPT Commissions V1, Mean / CPT Omissions V1, Mean / CPT Hit Reaction Time V1, Mean: Visit 1
Source text: Study participants were screened by telephone prior to study enrollment. Healthy subjects, ages 13-18, with no significant medical conditions and no history of co-morbid psychiatric disorder, current Axis I or II diagnosis, or previous participation in a pharmacotherapeutic trial, were selected. Use of any psychotropic medication or any previous head injury resulting in loss of consciousness for 5 or more minutes were used as exclusion criteria. While no participant met criteria for a neuropsychiatric disorder at enrollment, clinical assessments were still completed throughout the study to evaluate changes in mood state. In addition, self-reports of sleep habits, lifestyle, and exercise routines were also administered at baseline as well as at each study visit to assess changes in health habits during study participation. Following the completion of Visit 1 assessment, participants were given their 28-day supply of citicoline (250 mg or 500 mg) or placebo, which was randomly assigned. They were instructed to take one capsule a day every day for the next 28 days. Visit 2 occurred fourteen days after Visit 1. At Visit 2, the remaining study pills were counted and participant dosage calendars were checked to ensure compliance with the protocol. Additional neuropsychological measures and clinical assessments were administered during this visit. Participants returned for Visit 3 fourteen days later, on the 28th day of their study participation. The pill bottle and the dosage calendar were collected from each participant. Urine and blood were again obtained. Participants also participated in similar clinical and neuropsychological testing and clinical measures that were given during visit 1. The CPT is a test of sustained attention that has been adapted for computerized administration. The test requires participants to attend vigilantly to a series of target and distracter stimuli for a 14-minute duration. […] The CPT was administered at all three visits.

[3] = 250 mg/day group, Visit difference score
[4] = 250 mg/day group, Visit 3, in ms (unit assumed)
[5] = 250 mg/day group, visit difference score V3-V1
[6] = 500 mg/day group, Visit difference score

## C[N+](C)(C)CCOP(=O)(O)OP(=O)([O-])OC[C@H]1O[C@@H](n2ccc(N)nc2=O)[C@H](O)[C@@H]1O [citicoline, Cytidine 5′-diphosphocholine]
[1]; 250 mg/day, V1 (baseline)
  ARS Impulsivity, Mean: 1.44
  ARS Inattention, Mean: 1.30
[1]; 250 mg/day, V3 (day 28)
  ARS Impulsivity, Mean: 0.85
  ARS Inattention, Mean: 1.56
[1]; 250 mg/day, V3-V1
  ARS Impulsivity, Mean: -0.59
  ARS Inattention, Mean: 0.26
[1]; 500 mg/day, V1 (baseline)
  ARS Impulsivity, Mean: 0.88
  ARS Inattention, Mean: 0.50
[1]; 500 mg/day, V3 (day 28)
  ARS Impulsivity, Mean: 0.38
  ARS Inattention, Mean: 0.38
[1]; 500 mg/day, V3-V1
  ARS Inattention, Mean: -0.13
[2]; 250 mg/day group
  CPT Commissions V1, Mean: 18.22
  CPT Omissions V1, Mean: 9.59
[2]; 250 mg/day group, in ms (unit assumed)
  CPT Hit Reaction Time V1, Mean: 362.62
[2]; [3]
  V3-V1 CPT Commissions, Mean: -1.26
  V3-V1 CPT Omissions, Mean: 4.93
[2]; 250 mg/day group, Visit difference score, in ms (unit assumed)
  V3-V1 CPT Hit Reaction Time, Mean: 34.57
[2]; 250 mg/day group, Visit 3
  CPT Commissions V3, Mean: 16.96
  CPT Omissions V3, Mean: 14.52
  V3 CPT Commissions (Mean): 16.96
  V3 CPT Omissions (Mean): 14.52
[2]; [4]
  CPT Hit Reaction Time V3, Mean: 397.19
  V3 CPT Hit Reaction Time (Mean): 397.19
[2]; [5]
  V3-V1 CPT Commissions, Mean: -1.26
  V3-V1 CPT Omissions, Mean: 4.93
[2]; 250 mg/day group, visit difference score V3-V1, in ms (unit assumed)
  V3-V1 CPT Hit Reaction Time, Mean: 34.57
[2]; 500 mg/day group
  CPT Commissions V1, Mean: 18.79
  CPT Omissions V1, Mean: 8.42
[2]; 500 mg/day group, in ms (unit assumed)
  CPT Hit Reaction Time V1, Mean: 363.58
[2]; 500 mg/day group, Visit 3, in ms (unit assumed)
  CPT Hit Reaction Time V3, Mean: 391.30
[2]; [6]
  V3-V1 CPT Commissions, Mean: -3.88
  V3-V1 CPT Omissions, Mean: 5.33
[2]; 500 mg/day group, Visit difference score, in ms (unit assumed)
  V3-V1 CPT Hit Reaction Time, Mean: 27.71
[2]; 500 mg/day group, Visit 3
  CPT Commissions V3, Mean: 14.92
  CPT Omissions V3, Mean: 13.75
